Results: patent publication US20220193253A1, “SLOW-RELEASE CYTOKINE CONJUGATES” (ProLynx LLC, priority 2019, published 2022)

Tests used:
[1] = system: T-cells in the spleen and islets; assay: Pharmacodynamics of IL2 and IL2[N88R,C125S] in NOD mice (flow cytometry of spleen and islets); format: in vivo; settings: daily injections 25,000 units for five days
Method: Mice were sacrificed 2 hours after the last injection and the spleen and pancreas were harvested for flow cytometry analysis to measure changes in total number of T-cells and their differentiation in the spleen and islets.

IL-2Rβγ = target: T1, IL-2Rβγ (Homo sapiens, UniProt P14784+P31785); assay: U2OS cell-based assay kit for IL-2Rβγ binding (DiscoverX); settings: mutein vs WT IL-2
T1 construct: host or cells: U2OS
T1 sequence (P14784 27-551): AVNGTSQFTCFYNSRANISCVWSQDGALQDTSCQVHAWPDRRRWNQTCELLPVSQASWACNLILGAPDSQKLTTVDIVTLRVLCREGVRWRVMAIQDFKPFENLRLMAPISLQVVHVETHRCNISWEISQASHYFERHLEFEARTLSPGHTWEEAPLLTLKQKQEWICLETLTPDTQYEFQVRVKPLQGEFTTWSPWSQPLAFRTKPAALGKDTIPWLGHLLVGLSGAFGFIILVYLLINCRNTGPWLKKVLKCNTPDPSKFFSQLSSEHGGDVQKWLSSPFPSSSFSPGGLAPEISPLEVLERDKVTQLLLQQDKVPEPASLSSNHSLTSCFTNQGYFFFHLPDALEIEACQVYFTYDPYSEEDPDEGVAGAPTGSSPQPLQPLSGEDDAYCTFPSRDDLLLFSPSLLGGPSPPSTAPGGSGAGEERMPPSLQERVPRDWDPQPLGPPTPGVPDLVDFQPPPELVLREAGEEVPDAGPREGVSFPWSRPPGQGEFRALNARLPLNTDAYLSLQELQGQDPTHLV
T1 sequence (P31785 23-369): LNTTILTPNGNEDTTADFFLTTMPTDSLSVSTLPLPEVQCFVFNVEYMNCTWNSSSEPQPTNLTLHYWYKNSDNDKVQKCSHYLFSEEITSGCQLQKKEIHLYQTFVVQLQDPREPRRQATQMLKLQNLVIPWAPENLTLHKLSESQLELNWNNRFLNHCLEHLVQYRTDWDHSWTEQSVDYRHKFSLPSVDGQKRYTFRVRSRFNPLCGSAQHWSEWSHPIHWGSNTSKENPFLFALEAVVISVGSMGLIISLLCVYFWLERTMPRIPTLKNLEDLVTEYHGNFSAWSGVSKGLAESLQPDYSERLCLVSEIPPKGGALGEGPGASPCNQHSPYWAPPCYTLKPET
Method: (§1) IL-2[N88R,C125S] was prepared by expression in HEK cells. Cell-based receptor binding assays were performed to evaluate the activity of the mutein against the high-affinity αβγ trimeric (Treg) and intermediate affinity βγ dimeric (Teff) forms of the IL-2 receptor (Table 1). The mutein binds only 6-fold poorer than IL-2 to the IL-2Rαβγ but about 900-fold poorer to the IL-2Rβγ.
A U2OS cell-based assay kit for IL-2Rβγ binding was performed according the manufacturer's instructions (DiscoverX, Part #93-0998E3CP5). Cells were plated at 50 μL (˜5,000 cells/well) in 96 well assay plates and grown for 48 hours at 37° C., 5% CO2. Cells were then treated for 6 hours at 37° C., 5% CO2 with dilution series of either WT IL-2, IL-2 N88R, C125S, or IL-2 N88R, C125S released from microspheres at pH 9.4. Eleven WT IL-2 concentrations were assayed between 17 pg/mL-1 μg/mL (1 pM-61 nM). Eleven IL-2 N88R, C125S concentrations were assayed between 1.7 ng/mL-100 μg/mL ([…]-6 μM). Eleven released remnant IL-2 N88R, C125S concentrations were assayed between 170 pg/mL-10 μg/mL ([…]-600 nM). Treated cells were incubated with chemiluminescent substrate for 1 hour at ambient temperature in the dark, then luminescence was read with a Spectramax i3 plate reader with 250 ms integration time.

IL-2Rαβγ = target: T2, IL-2Rαβγ (Homo sapiens, UniProt P01589+P14784+P31785); assay: U2OS cell-based assay kit for IL-2Rαβγ binding (DiscoverX)
T2 construct: host or cells: U2OS
T2 sequence (P01589 22-272): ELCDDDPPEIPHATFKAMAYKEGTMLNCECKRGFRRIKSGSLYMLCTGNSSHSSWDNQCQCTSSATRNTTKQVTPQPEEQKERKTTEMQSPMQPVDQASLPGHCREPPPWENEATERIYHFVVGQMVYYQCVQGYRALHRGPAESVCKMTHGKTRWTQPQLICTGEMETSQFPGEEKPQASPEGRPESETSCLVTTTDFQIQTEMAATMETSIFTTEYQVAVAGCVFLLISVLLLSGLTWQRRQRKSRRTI
T2 sequence (P14784 27-551): T1 sequence (P14784 27-551)
T2 sequence (P31785 23-369): T1 sequence (P31785 23-369)
Method: as §1
A U2OS cell-based assay kit for IL-2Rαβγ binding was performed according the manufacturer's instructions (DiscoverX, Part #93-1003E3CP0). Cells were plated at 100 μL (˜10,000 cells/well) in 96 well assay plates and grown for 24 hours at 37° C., 5% CO2. Cells were then treated for 6 hours at 37° C., 5% CO2 with dilution series of either WT IL-2, IL-2 N88R, C125S, or IL-2 N88R, C125S released from microspheres at pH 9.4. Eleven WT IL-2 concentrations were assayed between 2 pg/mL-100 ng/mL (0.1 pM-6 nM). Eleven IL-2 N88R, C125S and released IL-2 N88R, C125S concentrations were assayed between 200 pg/mL-10 μg/mL ([…]-600 nM). Treated cells were incubated with chemiluminescent substrate for 1 hour at ambient temperature in the dark, then luminescence was read with a Spectramax i3 plate reader with 250 ms integration time.

[2] = system: CD8+ memory T cells and NK cells in PBMCs; assay: Pharmacodynamics of [aminopropyl]-RLI released from microsphere conjugate; format: in vivo, C57Black mice
Method: The pharmacodynamics of the MS-RLI conjugate (34 μg, 1.5 nmol) was compared to that of empty MSs, and free RLI (2.5 μg, QDx4) in C57Black mice (n=5/group). Blood draws were taken over 13 days and the PBMCs surface stained using general laboratory procedures. Fixation and intracellular staining followed protocols from the eBioscience Foxp3/Transcription Factor Staining Buffer Set (ThermoFisher Scientific). Commercial antibodies used were against NK1.1, CD3, CD8, CD19, CD44 and Ki-67 expressing cells. Stained single cell suspension were analyzed using a LSRII flow cytometer (BD Biosciences) and analyzed using FlowJo cytometry analysis software (TreeStar, Ashland, Oreg.). Cell populations of particular interest were CD8+ memory T cells (CD44^hiCD8+), natural killer (CD3-NK1.1+) cells, proliferating CD8+ memory T cells (CD44^hiCD8+Ki-67+), and proliferating natural killer (CD3-NK1.1+Ki-67+) cells.

[3] = in vivo; cited from earlier work

| Substance | effect on CD4+ and CD8+ effector/memory T-cells in the spleen [1] | effect on the T-cells in the islets compared to PBS vehicle [1] | Fold-change of βγ EC50 vs WT IL-2 (fold poorer binding) (IL-2Rβγ) | Fold-change βγ EC50 vs αβγ EC50 (selectivity for IL-2Rαβγ vs IL-2Rβγ) (IL-2Rαβγ) | day of return of CD44hiCD8+ T cells to baseline levels ([2]; 2.5 μg QDx4) [days] | fold increase in the percentage of NK cells in the PBMCs ([2]; MS-RLI 34 μg single, free RLI 2.5 μg QDx4) [fold] | time post treatment at which increase in CD44hiCD8+ T cells was noticeable ([2]; MS-RLI 34 μg single, native RLI 2.5 μg QDx4) [days] | half-life of free RLI [3] [h] |
| --- | --- | --- | --- | --- | --- | --- | --- | --- |
| IL-2 N88R, C125S: IL-2 mutein, SEQ ID No: 3, prepared by expression in HEK cells | little to no effect | little to no effect | about 900 fold | over 3,000 fold | – | – | – | – |
| RLI: receptor-linked interleukin: fusion protein comprising IL-15 and the sushi-domain of the receptor α-subunit, SEQ ID No: 16 | – | – | – | – | ≤ 7 | ~4 | 5 | 3 |
